Assay results as given in US11564394B2, “Distorted gold (I)-phosphine complexes and methods for use as antifungal agents” (University of Kentucky Research Foundation, priority 2019, dated 2023).
Like-named read-outs stand apart in the source and are kept apart here.

Tests used:
Experiment in all cases: MIC determination (broth microdilution)
Format in all cases: cell-based, Candida auris
Settings in all cases: Candidozyma auris
[1] = tested on: C. auris AR Bank # 0384 (strain K)
[2] = tested on: C. auris AR Bank # 0390 (strain L)
[3] = tested on: C. auris AR Bank # 0381 (strain I)
[4] = tested on: C. auris AR Bank # 0382 (strain II)
[5] = tested on: C. auris AR Bank # 0383 (strain III)
[6] = tested on: C. auris AR Bank # 0385 (strain IV)
[7] = tested on: C. auris AR Bank # 0386 (strain V)
[8] = tested on: C. auris AR Bank # 0387 (strain VI)
[9] = tested on: C. auris AR Bank # 0388 (strain VII)
[10] = tested on: C. auris AR Bank # 0389 (strain VIII)
[11] = strain K = C. auris AR Bank # 0384, MIC-2, read-out: MIC (MIC-2 for azoles)
[12] = strain K = C. auris AR Bank # 0384, MIC-2, read-out: MIC (MIC-2 for azoles, in parentheses)
[13] = strain L = C. auris AR Bank # 0390, MIC-2, read-out: MIC (MIC-2 for azoles)
[14] = strain L = C. auris AR Bank # 0390, MIC-2, read-out: MIC (MIC-2 for azoles, in parentheses)
[15] = strain I = C. auris AR Bank # 0381, MIC-2, optical density at 600 nm, read-out: MIC (MIC-2 for azoles)
[16] = strain I = C. auris AR Bank # 0381, MIC-2, optical density at 600 nm, read-out: MIC (MIC-2 for azoles, in parentheses)
[17] = strain II = C. auris AR Bank # 0382, MIC-2, read-out: MIC (MIC-2 for azoles)
[18] = strain II = C. auris AR Bank # 0382, MIC-2, read-out: MIC (MIC-2 for azoles, in parentheses)
[19] = strain IV = C. auris AR Bank # 0385, MIC-2, read-out: MIC (MIC-2 for azoles)
[20] = strain IV = C. auris AR Bank # 0385, MIC-2, read-out: MIC (MIC-2 for azoles, in parentheses)
[21] = strain V = C. auris AR Bank # 0386, MIC-2, read-out: MIC (MIC-2 for azoles)
[22] = strain V = C. auris AR Bank # 0386, MIC-2, read-out: MIC (MIC-2 for azoles, in parentheses)
[23] = strain VI = C. auris AR Bank # 0387, MIC-2, read-out: MIC (MIC-2 for azoles)
[24] = strain VI = C. auris AR Bank # 0387, MIC-2, read-out: MIC (MIC-2 for azoles, in parentheses)
[25] = strain VII = C. auris AR Bank # 0388, MIC-2, read-out: MIC (MIC-2 for azoles)
[26] = strain VII = C. auris AR Bank # 0388, MIC-2, read-out: MIC (MIC-2 for azoles, in parentheses)
[27] = strain VIII = C. auris AR Bank # 0389, MIC-2, read-out: MIC (MIC-2 for azoles)
[28] = strain VIII = C. auris AR Bank # 0389, MIC-2, read-out: MIC (MIC-2 for azoles, in parentheses)

| Compound | MIC [1, 11] | MIC [1, 12] | MIC [2, 13] | MIC [2, 14] | MIC [3, 15] | MIC [3, 16] | MIC [4, 17] | MIC [4, 18] | MIC [6, 19] | MIC [6, 20] | MIC [7, 21] | MIC [7, 22] | MIC [8, 23] | MIC [8, 24] | MIC [9, 25] | MIC [9, 26] | MIC [10, 27] | MIC [10, 28] | also measured |
| --- | --- | --- | --- | --- | --- | --- | --- | --- | --- | --- | --- | --- | --- | --- | --- | --- | --- | --- | --- |
| CC[C@H](C)C[C@H](C)CCCCCCCCC(=O)N[C@H]1C[C@@H](O)[C@@H](NCCN)NC(=O)[C@@H]2[C@@H](O)CCN2C(=O)[C@H]([C@H](O)CCN)NC(=O)[C@H]([C@H](O)[C@@H](O)c2ccc(O)cc2)NC(=O)[C@@H]2C[C@@H](O)CN2C(=O)[C@H]([C@@H](C)O)NC1=O [CAS, caspofungin] |  |  |  |  |  |  |  |  |  |  |  |  |  |  |  |  |  |  | MIC [1]: 1.95 µg/mL; MIC ([1]; read-out: MIC (in parentheses)): 1.8 µM; MIC [2]: 7.8 µg/mL; MIC ([2]; read-out: MIC (in parentheses)): 7.1 µM; MIC [3]: < 0.98 µg/mL; MIC ([3]; read-out: MIC (in parentheses)): < 0.9 µM; MIC [4]: < 0.98 µg/mL; MIC ([4]; read-out: MIC (in parentheses)): < 0.9 µM; MIC [5]: 1.95 µg/mL; MIC ([5]; read-out: MIC (in parentheses)): 1.8 µM; MIC [6]: < 0.98 µg/mL; MIC ([6]; read-out: MIC (in parentheses)): < 0.9 µM; MIC [7]: 7.8 µg/mL; MIC ([7]; read-out: MIC (in parentheses)): 7.1 µM; MIC [8]: 31.3 µg/mL; MIC ([8]; read-out: MIC (in parentheses)): 28.6 µM; MIC [9]: 31.3 µg/mL; MIC ([9]; read-out: MIC (in parentheses)): 28.6 µM; MIC [10]: 7.8 µg/mL; MIC ([10]; read-out: MIC (in parentheses)): 7.1 µM |
| OC(Cn1cncn1)(Cn1cncn1)c1ccc(F)cc1F [FLC, fluconazole] | 31.3 µg/mL | 102 µM | > 62.5 µg/mL | > 204 µM | 0.49 µg/mL | 1.6 µM | 0.49 µg/mL | 1.6 µM | > 62.5 µg/mL | > 204 µM | > 62.5 µg/mL | > 204 µM | 0.98 µg/mL | 3.2 µM | > 62.5 µg/mL | > 204 µM | > 62.5 µg/mL | > 204 µM |  |
| C[C@@H](c1ncncc1F)[C@](O)(Cn1cncn1)c1ccc(F)cc1F [VRC, voriconazole] | 0.24 µg/mL | 0.7 µM | 0.49 µg/mL | 1.4 µM | 0.06 µg/mL | 0.2 µM | 0.06 µg/mL | 0.2 µM | 3.9 µg/mL | 11.2 µM | 3.9 µg/mL | 11.2 µM | 0.06 µg/mL | 0.2 µM | 0.49 µg/mL | 1.4 µM | 0.98 µg/mL | 2.8 µM | MIC ([5]; strain III = C. auris AR Bank # 0383, MIC-2, read-out: MIC (MIC-2 for azoles)): 1.95 µg/mL; MIC ([5]; strain III = C. auris AR Bank # 0383, MIC-2, read-out: MIC (MIC-2 for azoles, in parentheses)): 5.6 µM |
